Laboratory results: ChEMBL document CHEMBL1148788 (J Med Chem, 2007)
pEC50: −log10 of the molar value.

Assays:
Format in all cases: functional, cell-based
[1] = Antagonist activity at human alpha7nAChR Y93A mutant co-expressed with human Ric3 in tsA201 cells by FMP assay
[2] = Antagonist activity at human alpha7nAChR W149A mutant co-expressed with human Ric3 in tsA201 cells by FMP assay
[3] = Antagonist activity at human alpha-7 nAChR Y195A mutant coexpressed with human Ric3 in tsA201 cells by FMP assay
[4] = Antagonist activity at human alpha7 nAChR W149Y mutant co-expressed with human Ric3 in tsA201 cells by FMP assay
[5] = Antagonist activity at human alpha-7 nAChR Y188A mutant coexpressed with human Ric3 in tsA201 cells by FMP assay

SMILES: CC(=O)OCC[N+](C)(C)C [ACETYLCHOLINE]
- pEC50 ([1]; read-out: EC50): 4.09
- EC50 ([1]; read-out: pEC50 (converted)): 81.3 µM
- pEC50 ([2]; read-out: EC50): < 1.52
- EC50 ([2]; read-out: pEC50 (converted)): > 31600 µM
- pEC50 ([3]; read-out: EC50): 3.59
- EC50 ([3]; read-out: pEC50 (converted)): 257 µM
- pEC50 ([4]; read-out: EC50): 2.82
- EC50 ([4]; read-out: pEC50 (converted)): 1580 µM
- pEC50 ([5]; read-out: EC50): 2.41
- EC50 ([5]; read-out: pEC50 (converted)): 3890 µM
